Data from article PMC4508061, “Selectivity Profiling and Biological Activity of Novel β-Carbolines as Potent and Selective DYRK1 Kinase Inhibitors” (PLoS ONE, 2015).

Experiments:
ARK5 = ARK5 (Homo sapiens, UniProt O60285); experiment: ProQinase radiometric kinase panel; details: mean of 2 exp.
PLK1 = PLK1 (Homo sapiens, UniProt P53350); experiment: ProQinase radiometric kinase panel; details: mean of 2 exp.
MELK = MELK (Homo sapiens, UniProt Q14680); experiment: ProQinase radiometric kinase panel; details: mean of 2 exp.
CDK16/CycY = CDK16/CycY (Homo sapiens, UniProt Q00536); experiment: ProQinase radiometric kinase panel; details: mean of 2 exp.
ERBB2 = ERBB2 (Homo sapiens, UniProt P04626); experiment: ProQinase radiometric kinase panel; details: mean of 2 exp.
CDK3/CycE1 = CDK3/CycE1 (Homo sapiens, UniProt Q00526); experiment: ProQinase radiometric kinase panel; details: mean of 2 exp.
MKNK2 = MKNK2 (Homo sapiens, UniProt Q9HBH9); experiment: ProQinase radiometric kinase panel; details: mean of 2 exp.
MKNK1 = MKNK1 (Homo sapiens, UniProt Q9BUB5); experiment: ProQinase radiometric kinase panel; details: mean of 2 exp.
EPHA4 = EPHA4 (Homo sapiens, UniProt P54764); experiment: ProQinase radiometric kinase panel; details: mean of 2 exp.
FGF-R3 = FGF-R3 (Homo sapiens, UniProt P22607); experiment: ProQinase radiometric kinase panel; details: mean of 2 exp.
MAP3K10 = MAP3K10 (Homo sapiens, UniProt Q02779); experiment: ProQinase radiometric kinase panel; details: mean of 2 exp.
BMPR1A = BMPR1A (Homo sapiens, UniProt P36894); experiment: ProQinase radiometric kinase panel; details: mean of 2 exp.
ERBB4 = ERBB4 (Homo sapiens, UniProt Q15303); experiment: ProQinase radiometric kinase panel; details: mean of 2 exp.
PRKD2 = PRKD2 (Homo sapiens, UniProt Q9BZL6); experiment: ProQinase radiometric kinase panel; details: mean of 2 exp.
PAK1 = PAK1 (Homo sapiens, UniProt Q13153); experiment: ProQinase radiometric kinase panel; details: mean of 2 exp.
PAK6 = PAK6 (Homo sapiens, UniProt Q9NQU5); experiment: ProQinase radiometric kinase panel; details: mean of 2 exp.
INSR-R = INSR-R (Homo sapiens, UniProt P14616); experiment: ProQinase radiometric kinase panel; details: mean of 2 exp.
ACV-R1 = ACV-R1 (Homo sapiens, UniProt Q04771); experiment: ProQinase radiometric kinase panel; details: mean of 2 exp.
IKK-epsilon = IKK-epsilon (Homo sapiens, UniProt Q14164); experiment: ProQinase radiometric kinase panel; details: mean of 2 exp.
HIPK2 = HIPK2 (Homo sapiens, UniProt Q9H2X6); experiment: Kinase-GLO luminescent kinase assay; assay type: biochemical; set-up: made in house; host or cells: E. coli; details: 10 μM compound; means of at least 3 measurements
Method in brief: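 E. coli-expressed GST fusions (DYRK1A-ΔC, DYRK1B and HIPK2 catalytic domains, DYRK2) assayed in 25 mM Hepes pH 7.4, 5 mM MgCl2, 5 μM ATP with DYRKtide (20 μM for DYRKs, 100 μM for HIPK2). Kinase dosed to consume ~90% ATP; 30 min at room temperature, remaining ATP read by Kinase-GLO luminescence.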

PIM2 = PIM2 (Homo sapiens, UniProt Q9P1W9); experiment: ProQinase radiometric kinase panel; details: mean of 2 exp.
CHK2 = CHK2 (Homo sapiens, UniProt O96017); experiment: ProQinase radiometric kinase panel; details: mean of 2 exp.
PRK2 = PRK2 (Homo sapiens, UniProt Q16513); experiment: ProQinase radiometric kinase panel; details: mean of 2 exp.
RIPK2 = RIPK2 (Homo sapiens, UniProt O43353); experiment: ProQinase radiometric kinase panel; details: mean of 2 exp.
TSF1 = TSF1 (Homo sapiens, UniProt O75716); experiment: ProQinase radiometric kinase panel; details: mean of 2 exp.
MINK1 = MINK1 (Homo sapiens, UniProt Q8N4C8); experiment: ProQinase radiometric kinase panel; details: mean of 2 exp.
CDK2/CycA2 = CDK2/CycA2 (Homo sapiens, UniProt P24941); experiment: ProQinase radiometric kinase panel; details: mean of 2 exp.
LTK = LTK (Homo sapiens, UniProt P29376); experiment: ProQinase radiometric kinase panel; details: mean of 2 exp.
AKT2 = AKT2 (Homo sapiens, UniProt P31751); experiment: ProQinase radiometric kinase panel; details: mean of 2 exp.
MYLK3 = MYLK3 (Homo sapiens, UniProt Q32MK0); experiment: ProQinase radiometric kinase panel; details: mean of 2 exp.

AKT2, sequence (P31751 whole entry): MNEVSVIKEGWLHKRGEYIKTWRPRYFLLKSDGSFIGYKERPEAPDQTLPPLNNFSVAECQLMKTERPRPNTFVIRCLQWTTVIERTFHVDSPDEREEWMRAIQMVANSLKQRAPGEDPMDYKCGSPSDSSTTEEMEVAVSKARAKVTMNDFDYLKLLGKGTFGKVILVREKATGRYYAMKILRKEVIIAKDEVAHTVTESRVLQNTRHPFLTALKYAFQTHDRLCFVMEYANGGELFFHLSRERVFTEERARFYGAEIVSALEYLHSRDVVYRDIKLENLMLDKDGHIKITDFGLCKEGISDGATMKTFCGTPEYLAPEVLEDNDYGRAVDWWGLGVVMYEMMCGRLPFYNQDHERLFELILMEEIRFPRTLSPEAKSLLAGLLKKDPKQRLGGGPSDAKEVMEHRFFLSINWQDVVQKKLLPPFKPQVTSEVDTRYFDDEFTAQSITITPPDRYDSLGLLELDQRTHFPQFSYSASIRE
MINK1, sequence (Q8N4C8 whole entry): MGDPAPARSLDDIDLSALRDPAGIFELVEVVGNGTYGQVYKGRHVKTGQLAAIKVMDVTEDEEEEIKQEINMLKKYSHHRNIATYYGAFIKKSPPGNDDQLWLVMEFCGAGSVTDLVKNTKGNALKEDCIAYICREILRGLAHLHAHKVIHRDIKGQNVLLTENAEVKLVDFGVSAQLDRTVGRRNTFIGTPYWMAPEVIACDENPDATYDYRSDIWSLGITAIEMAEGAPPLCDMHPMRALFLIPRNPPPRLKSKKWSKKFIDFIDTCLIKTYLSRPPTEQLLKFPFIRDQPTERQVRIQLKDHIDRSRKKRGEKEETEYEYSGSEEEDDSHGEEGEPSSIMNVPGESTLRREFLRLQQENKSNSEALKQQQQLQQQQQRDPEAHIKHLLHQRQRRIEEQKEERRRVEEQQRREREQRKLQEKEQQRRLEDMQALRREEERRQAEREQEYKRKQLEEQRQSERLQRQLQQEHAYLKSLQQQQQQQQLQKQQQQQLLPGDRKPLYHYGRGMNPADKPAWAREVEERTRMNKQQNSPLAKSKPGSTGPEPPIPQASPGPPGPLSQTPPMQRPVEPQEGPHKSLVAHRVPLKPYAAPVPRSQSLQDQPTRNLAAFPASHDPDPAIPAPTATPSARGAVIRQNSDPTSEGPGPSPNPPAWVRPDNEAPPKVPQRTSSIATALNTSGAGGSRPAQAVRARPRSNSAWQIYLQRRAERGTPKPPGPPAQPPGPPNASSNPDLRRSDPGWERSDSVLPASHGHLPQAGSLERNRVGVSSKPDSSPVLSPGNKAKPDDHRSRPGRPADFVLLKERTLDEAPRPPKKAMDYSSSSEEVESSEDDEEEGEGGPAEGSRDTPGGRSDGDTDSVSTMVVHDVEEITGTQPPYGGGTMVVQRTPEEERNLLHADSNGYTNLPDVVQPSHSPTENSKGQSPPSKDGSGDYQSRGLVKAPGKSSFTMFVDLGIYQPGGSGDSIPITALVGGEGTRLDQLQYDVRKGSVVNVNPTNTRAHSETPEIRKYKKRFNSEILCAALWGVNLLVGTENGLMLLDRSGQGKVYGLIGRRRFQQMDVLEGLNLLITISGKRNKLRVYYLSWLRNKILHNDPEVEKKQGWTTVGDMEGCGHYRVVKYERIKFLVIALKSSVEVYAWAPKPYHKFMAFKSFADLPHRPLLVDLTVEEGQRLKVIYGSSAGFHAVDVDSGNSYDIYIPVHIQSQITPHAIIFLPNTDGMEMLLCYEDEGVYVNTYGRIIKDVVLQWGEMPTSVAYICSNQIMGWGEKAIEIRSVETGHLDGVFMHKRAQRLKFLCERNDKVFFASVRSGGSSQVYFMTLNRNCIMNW
RIPK2, sequence (O43353 whole entry): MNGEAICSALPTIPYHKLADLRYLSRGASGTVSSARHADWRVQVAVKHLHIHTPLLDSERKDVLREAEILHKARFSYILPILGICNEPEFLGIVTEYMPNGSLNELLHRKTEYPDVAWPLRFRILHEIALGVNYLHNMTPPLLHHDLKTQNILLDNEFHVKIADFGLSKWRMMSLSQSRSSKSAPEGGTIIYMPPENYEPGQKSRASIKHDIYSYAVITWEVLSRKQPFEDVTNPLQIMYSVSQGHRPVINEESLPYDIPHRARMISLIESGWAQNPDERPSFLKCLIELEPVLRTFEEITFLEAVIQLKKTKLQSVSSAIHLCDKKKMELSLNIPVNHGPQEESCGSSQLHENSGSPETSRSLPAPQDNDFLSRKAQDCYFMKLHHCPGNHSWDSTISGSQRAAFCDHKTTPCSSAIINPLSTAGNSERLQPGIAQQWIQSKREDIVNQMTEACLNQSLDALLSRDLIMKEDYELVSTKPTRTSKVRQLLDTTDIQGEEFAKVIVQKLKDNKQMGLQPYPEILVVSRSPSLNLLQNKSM
MKNK1, sequence (Q9BUB5 whole entry): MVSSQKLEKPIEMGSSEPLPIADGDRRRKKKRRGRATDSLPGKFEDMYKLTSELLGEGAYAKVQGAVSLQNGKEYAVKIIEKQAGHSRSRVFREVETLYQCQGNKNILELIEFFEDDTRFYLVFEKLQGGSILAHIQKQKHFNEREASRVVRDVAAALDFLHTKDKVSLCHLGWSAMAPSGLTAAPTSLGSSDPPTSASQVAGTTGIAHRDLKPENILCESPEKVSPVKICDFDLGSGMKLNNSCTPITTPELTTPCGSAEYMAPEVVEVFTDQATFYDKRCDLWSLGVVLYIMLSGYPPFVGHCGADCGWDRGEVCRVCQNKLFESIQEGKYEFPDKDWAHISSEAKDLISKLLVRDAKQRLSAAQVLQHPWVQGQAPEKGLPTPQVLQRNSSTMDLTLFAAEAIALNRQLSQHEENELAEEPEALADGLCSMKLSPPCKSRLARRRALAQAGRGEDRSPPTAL
PRKD2, sequence (Q9BZL6 whole entry): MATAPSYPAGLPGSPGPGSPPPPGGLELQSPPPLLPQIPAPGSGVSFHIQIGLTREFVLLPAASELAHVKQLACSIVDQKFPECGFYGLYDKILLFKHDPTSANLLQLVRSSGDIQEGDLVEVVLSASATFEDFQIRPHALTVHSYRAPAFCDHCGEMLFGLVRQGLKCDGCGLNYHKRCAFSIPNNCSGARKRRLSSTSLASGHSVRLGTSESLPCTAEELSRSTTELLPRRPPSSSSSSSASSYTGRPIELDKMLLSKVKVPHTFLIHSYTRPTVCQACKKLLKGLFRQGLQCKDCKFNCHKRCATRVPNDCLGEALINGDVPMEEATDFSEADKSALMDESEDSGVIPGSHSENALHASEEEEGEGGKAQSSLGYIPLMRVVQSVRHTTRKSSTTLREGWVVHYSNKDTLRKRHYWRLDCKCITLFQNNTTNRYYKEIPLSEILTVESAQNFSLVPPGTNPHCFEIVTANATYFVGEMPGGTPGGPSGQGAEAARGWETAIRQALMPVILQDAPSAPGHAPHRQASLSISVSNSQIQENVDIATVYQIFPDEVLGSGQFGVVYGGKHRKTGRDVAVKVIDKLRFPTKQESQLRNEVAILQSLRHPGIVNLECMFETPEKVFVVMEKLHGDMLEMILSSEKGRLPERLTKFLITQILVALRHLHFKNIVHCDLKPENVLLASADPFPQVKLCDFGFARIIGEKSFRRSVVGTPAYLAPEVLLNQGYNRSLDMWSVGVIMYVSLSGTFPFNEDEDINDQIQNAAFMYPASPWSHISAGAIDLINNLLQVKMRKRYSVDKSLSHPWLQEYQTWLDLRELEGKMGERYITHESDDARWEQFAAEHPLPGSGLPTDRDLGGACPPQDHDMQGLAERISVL
MKNK2, sequence (Q9HBH9 whole entry): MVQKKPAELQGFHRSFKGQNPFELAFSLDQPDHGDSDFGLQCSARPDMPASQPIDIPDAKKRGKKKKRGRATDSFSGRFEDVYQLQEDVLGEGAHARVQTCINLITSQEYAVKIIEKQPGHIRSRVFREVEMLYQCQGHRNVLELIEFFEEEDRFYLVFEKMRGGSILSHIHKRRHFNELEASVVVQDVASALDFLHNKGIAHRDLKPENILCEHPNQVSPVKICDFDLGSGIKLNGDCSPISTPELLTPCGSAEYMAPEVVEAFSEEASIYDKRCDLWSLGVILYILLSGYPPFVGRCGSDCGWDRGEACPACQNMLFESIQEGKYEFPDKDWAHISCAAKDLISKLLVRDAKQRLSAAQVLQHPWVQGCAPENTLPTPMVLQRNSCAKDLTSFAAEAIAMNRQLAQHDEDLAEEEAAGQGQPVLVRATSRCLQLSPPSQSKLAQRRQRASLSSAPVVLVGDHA
ACV-R1, sequence (Q04771 21-509): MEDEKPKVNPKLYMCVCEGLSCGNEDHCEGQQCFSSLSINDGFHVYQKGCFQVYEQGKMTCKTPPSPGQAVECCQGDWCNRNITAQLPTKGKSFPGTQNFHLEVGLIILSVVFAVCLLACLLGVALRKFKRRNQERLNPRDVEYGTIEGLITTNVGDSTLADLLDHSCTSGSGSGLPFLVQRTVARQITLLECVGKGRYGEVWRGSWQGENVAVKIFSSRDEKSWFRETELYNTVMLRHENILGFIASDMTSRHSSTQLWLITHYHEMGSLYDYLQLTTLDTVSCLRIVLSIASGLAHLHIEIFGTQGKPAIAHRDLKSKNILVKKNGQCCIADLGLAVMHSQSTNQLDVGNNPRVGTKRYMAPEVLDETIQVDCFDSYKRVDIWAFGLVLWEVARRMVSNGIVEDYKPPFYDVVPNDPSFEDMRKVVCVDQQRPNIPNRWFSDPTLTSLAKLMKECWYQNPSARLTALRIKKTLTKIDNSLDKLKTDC
PIM2, sequence (Q9P1W9 whole entry): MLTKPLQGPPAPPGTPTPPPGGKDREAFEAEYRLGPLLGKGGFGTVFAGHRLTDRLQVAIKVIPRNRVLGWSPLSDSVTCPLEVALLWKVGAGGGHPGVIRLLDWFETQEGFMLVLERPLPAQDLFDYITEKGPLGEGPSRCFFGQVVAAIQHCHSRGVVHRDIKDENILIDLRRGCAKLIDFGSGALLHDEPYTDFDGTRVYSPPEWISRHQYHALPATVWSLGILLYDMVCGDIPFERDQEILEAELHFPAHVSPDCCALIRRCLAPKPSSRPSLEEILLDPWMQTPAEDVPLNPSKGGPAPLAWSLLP

- residual activity at 1 µM, Mean (ARK5): 94 % of control
- residual activity at 1 µM, Mean (PLK1): 93 % of control
- residual activity at 1 µM, Mean (MELK): 87 % of control
- residual activity at 1 µM, Mean (CDK16/CycY): 90 % of control
- residual activity at 1 µM, Mean (ERBB2): 102 % of control
- residual activity at 1 µM, Mean (CDK3/CycE1): 94 % of control
- residual activity at 1 µM, Mean (MKNK2): 92 % of control
- residual activity at 1 µM, Mean (MKNK1): 103 % of control
- residual activity at 1 µM, Mean (EPHA4): 99 % of control
- residual activity at 1 µM, Mean (FGF-R3): 107 % of control
- residual activity at 1 µM, Mean (MAP3K10): 91 % of control
- residual activity at 1 µM, Mean (BMPR1A): 89 % of control
- residual activity at 1 µM, Mean (ERBB4): 90 % of control
- residual activity at 1 µM, Mean (PRKD2): 90 % of control
- residual activity at 1 µM, Mean (PAK1): 103 % of control
- residual activity at 1 µM, Mean (PAK6): 93 % of control
- residual activity at 1 µM, Mean (INSR-R): 97 % of control
- residual activity at 1 µM, Mean (ACV-R1): 93 % of control
- residual activity at 1 µM, Mean (IKK-epsilon): 95 % of control
- Residual activity (% of control) HIPK2 (HIPK2): 85 % of control
- residual activity at 1 µM, Mean (PIM2): 107 % of control
- residual activity at 1 µM, Mean (CHK2): 102 % of control
- residual activity at 1 µM, Mean (PRK2): 88 % of control
- residual activity at 1 µM, Mean (RIPK2): 94 % of control
- residual activity at 1 µM, Mean (TSF1): 97 % of control
- residual activity at 1 µM, Mean (MINK1): 92 % of control
- residual activity at 1 µM, Mean (CDK2/CycA2): 88 % of control
- residual activity at 1 µM, Mean (LTK): 99 % of control
- residual activity at 1 µM, Mean (AKT2): 106 % of control
- residual activity at 1 µM, Mean (MYLK3): 94 % of control
Structure (SMILES): COc1ccc2c3ccnc(Cl)c3n(CC#N)c2c1 [AnnH75]
